Measured values as given in US20240108634A1, “COMPOSITIONS AND METHODS FOR INHIBITING YAP” (The United States Government as represented by the …, priority 2021, published 2024).

Test system: LN229 and GBM39 cells
Test: Boyden chamber migration towards vitronectin or fibronectin
Assay type: cell-based, human
Settings: vitronectin or fibronectin versus BSA-coated chambers
Text: Cells were layered in soft agar to evaluate anchorage-independent growth in the presence of the indicated concentrations of inhibitor and colonies counted following 14 days of growth. Representative crystal violet stained images are shown below. Data represent mean+S.D. of three independent experiments. […] Cells were placed in Boyden chambers and allowed to migrate towards BSA (white bars), vitronectin (light yellow bars), or fibronectin (dark yellow bars) (*, P<0.05; n=3). […] Representative crystal violet stained images are shown (200×). Data represent mean+S.D. of three independent experiments. […] Graphical data shown below represent mean+S.D. (late apoptosis; annexin V-positive, PI-positive) of three independent experiments.
Cell proliferation, clonogenic, migration, invasion and apoptosis assays. Cell proliferation was determined via Cell Titer-Glo® luminescent cell assays (Promega). Clonogenic assays were done by plating a total of 1,000 cells per well in 24-well plates in a total volume of 400 μL using a two-layered soft agar system as previously described (Masri J, et al. (2007) Cancer Res 67: 11712-11720). Cell migration assays were conducted using precoated modified Boyden chambers as previously described (Benavides-Serrato A, et al. (2017) PLoS One 12: e0176599). […]

SMILES: COc1ccc(-c2cc(-c3ccccc3)nc3c2CC(=O)Nc2ccccc2-3)cc1OC [NSC682769]
- Cell migration: inhibited the number of cells capable of migrating
